# Test results reported in US10240124B2, “Cell culture substrate comprising a laminin and a cadherin” (BioLamina AB, priority 2011, dated 2019).
# How the values were obtained:
# Human ES cells [1] = experiment: Expansion of hES cells on r-laminin-521 with single cell dissociation passaging (Example 1); type: cell-based
# From the text: In further aspects, the present disclosure provides a method to expand human embryonic stem cells in pluripotent state. It has been shown that human embryonic stem cells plated in single cell suspension on laminin-521 survived and proliferated at a higher rate than that of classical methods known in the art. After 3 passages (1 month) the cells passaged in a single cell suspension underwent the same number of cell divisions as that of cell cultures passaged in pieces on Matrigel after 20 passages (3 months). Therefore, the new method was advantageous in terms of time and labor, which may provide significant economical profits.
# Human ES cells were cultured on r-laminin-521-coated laboratory dishes in chemically defined O3 medium (described in Rodin et al., Nature Biotechnol., vol. 28, pp. 611-615 (2010)) at 37° C. in 5% CO2. Cells were routinely passed once every 10-12 days by exposure to Trypsin-EDTA solution (GIBCO Invitrogen) for 5 minutes at 37° C. They were then gently pipetted to break into single-cell suspension and defined trypsin inhibitor (GIBCO Invitrogen) was added. The cell suspension was centrifuged […], the supernatant discarded, the cell pellet resuspended in prewarmed O3 medium, and cells were then passed through a 40 μm sieve. After that cells were plated on new r-laminin-521-coated dishes at a concentration 30 Kcells/cm^2 (1:25-1:30 split ratio). Cells were fed once a day with fresh medium prewarmed in an incubator for 1 hour, except for the first day after a passage, when only a few drops of fresh medium were added. Control cells of the same line were cultured on Matrigel (BD Biosciences) in O3 medium as described in Rodin et al., Nature Biotechnol., vol. 28, pp. 611-615 (2010). Control cells were passaged in pieces.
# Human ES cells [2] = experiment: Real-time quantitative RT-PCR of Oct4 and Nanog (Example 1); type: cell-based; settings: FIG. 11
# Experimental: Total RNA was isolated and cDNA was synthesized as described in Rodin et al., Nature Biotechnol., vol. 28, pp. 611-615 (2010). Real-time quantitative RT-PCR Taqman assays were performed using the Applied Biosystems 7300 Real-Time PCR System. All reactions were done in quadruplicate with predeveloped gene expression assay mix (Applied Biosystems) containing primers and a probe for the mRNA of interest. Additional reactions for each experiment included predeveloped gene expression assay mix for GAPDH, used to normalize the RNA input. All data were analyzed with 7300 System SDS Software version 1.4.
# [3] = test system: human pluripotent cells (HS181, HS401, H1, ChiPSW, CutB1.2); experiment: Long-term self-renewal culture of hES and iPS cells on LN-521 (Example 2); type: cell-based; settings: for passages of proliferation on LN-521: O3 medium
# hES cells = experiment: Expression of pluripotency and differentiation markers (RT-PCR, FACS, immunofluorescence); type: cell-based, human; settings: compared with cells on Matrigel passed as small clumps
# Experimental: For immunofluorescence studies, ES cells were cultured and fixed in 8-well slide chambers (BD Biosciences) or 96-well plate wells by 4% paraformaldehyde, permeabilized by 0.1% Triton-X and blocked by 10% bovine fetal serum (GIBCO Invitrogen Corporation) in phosphate-saline buffer (PBS) containing 0.1% Tween-20 (Sigma-Aldrich, St. Louis, http://www.sigmaaldrich.com) for one hour. Incubation with primary antibody was performed for 1.5 hours at room temperature. Incubation with secondary antibody and 4,6-diamidino-2-phenylindole (DAPI, Molecular Probes) was performed for 40 minutes. Between incubations, the specimens were washed with 0.1% Tween-20 in PBS buffer three to five times. Specimens were preserved in a fluorescence mounting medium (Dako, Glostrup, Denmark, http://www.dako.com), and observed under a fluorescence microscope (Leica, Heerbrugg, Switzerland, http://www.leica.com).
# Total RNA was isolated using Absolutely RNA Microprep Kit (Stratagene, La Jolla Calif., www.stratagene.com) according to the manufacturer's instructions. cDNA was synthesized using 0.2 μg of total RNA in 20 μl reaction mixture, containing oligo(dT)12-18 primers and Superscript II reverse transcriptase (GIBCO Invitrogen Corporation), according to the manufacturer's instructions. […] All data was analyzed with 7300 System SDS Software v 1.4. […]
# Human ES cells [4] = experiment: FACS analysis for OCT4 (Example 1); type: cell-based; settings: after several single cell suspension passages, O3 medium, FIG. 9 and 10
# Experimental: OCT4 expression was analyzed as described in Ludwig, T. E. et al. Derivation of human embryonic stem cells in defined conditions. Nat. Biotechnol. 24, 185-187 (2006). Cells were run on FACSCalibur Flow Cytometer (Becton Dickinson). Data were analyzed with CellQuest software (Becton Dickinson).
# [5] = test system: human embryonic stem cells; experiment: Survival of hES cells plated in single cell suspension on precoated dishes (description); type: cell-based; settings: O3 medium, 30 Kcells/cm^2
# From the text: In other aspects, the present disclosure provides a new material, isolated laminin-521, which permits human embryonic stem cell survival after dissociation into single cell suspension. The stem cells were dissociated into single cell suspension by Trypsin-EDTA treatment, pelleted by centrifugation, resuspended into O3 medium, filtered through a 40 μm sieve, and plated at a density of 30 Kcells/cm^2 on cell culture dishes precoated by either isolated laminin-521, laminin-511, or Matrigel. After one day in culture, the cells plated on Matrigel died, as is known in the art.
substance,measurement,setting,value
"LN-521: protein formed by joining α5, β2 and γ1 laminin chains; human recombinant, produced in HEK293 cells",passages in single cell suspension giving the same number of cell divisions as cultures passaged in pieces on Matrigel after 20 passages (3 months),Human ES cells [1]; 1 month,3 passages
same,passages to the same number of cell doublings as stem cells after 20 passages (100 days) by conventional methods,"Human ES cells [1]; 1 month, FIG. 8",3 passages
same,increase in the number of cells versus time compared with Matrigel,Human ES cells [1]; FIG. 8,much faster rate
same,proliferation rate compared with classical methods,Human ES cells [1]; plated in single cell suspension,higher rate
same,passages of robust proliferation at a stable and high rate,"Human ES cells [1]; single cell passaging every 10-12 days, 1:25 to 1:30, 3 months",at least 9 passages
same,number of mRNA transcripts of Oct4 and Nanog compared with Matrigel,Human ES cells [2],higher numbers of transcripts
same,passages cultured on LN-521,"[3]; ChiPSW iPS cells, mTeSR1",3 passages
same,passages cultured on LN-521,"[3]; CutB1.2 iPS cells, mTeSR1",5 passages
same,passages of proliferation on LN-521,"[3]; H1 cells, 6 months",≥ 15 passages
same,passages cultured on LN-521,"[3]; H1 cells, TeSR2, xeno-free, 5 months",12 passages
same,passages of proliferation on LN-521,"[3]; HS181 cells, 9 months",at least 24 passages
same,passages of proliferation on LN-521,"[3]; HS401 cells, 2 months",≥ 5 passages
same,passages cultured on LN-521,"[3]; HS401 cells, TeSR2, xeno-free, 1.5 months",4 passages
same,"expression levels of pluripotency markers Oct4, Nanog and SSEA4",hES cells,stable expression levels
same,percentage of Oct4 positive (pluripotent) cells compared with Matrigel,Human ES cells [4],much higher percentage
same,survival of human embryonic stem cells after one day in culture,[5],survived and started to proliferate
